pIC50: −log10 of the molar value.
How the values were obtained:
[1] = system: Candida albicans; assay: Antifungal activity against Candida albicans ATCC 10231 assessed as inhibition of fungal growth incubated for 48 hrs by serial dilution based spectrophotometric analysis; assay type: functional, organism-based; settings: ATCC 10231, 48 h
[2] = system: Escherichia coli; assay: Antibacterial activity against Escherichia coli ATCC 11775 assessed as inhibition of bacterial growth incubated for 24 hrs by serial dilution based spectrophotometric analysis; assay type: functional, organism-based; settings: ATCC 11775, 24 h
[3] = system: SW-620; assay: Cytotoxicity against human SW620 cells assessed as inhibition of cell growth incubated for 24 hrs by MTT assay; assay type: functional, cell-based; settings: SW-620, 24 h
[4] = system: Staphylococcus aureus; assay: Antibacterial activity against Staphylococcus aureus ATCC 25923 assessed as inhibition of bacterial growth incubated for 24 hrs by serial dilution based spectrophotometric analysis; assay type: functional, organism-based; settings: ATCC 25923, 24 h
[5] = system: NCI-H460; assay: Cytotoxicity against human NCI-H460 cells assessed as inhibition of cell growth incubated for 24 hrs by MTT assay; assay type: functional, cell-based; settings: NCI-H460, 24 h
[6] = Inhibition of RANKL-induced osteoclastogenesis in mouse RAW264 cells assessed as reduction in multinucleated TRAP positive osteoclasts incubated for 4 days by TRAP staining based light microscopic analysis; assay type: functional, cell-based; settings: raw264.7

Compound | pIC50 [1] | pIC50 [2] | pIC50 [3] | pIC50 [4] | pIC50 [5] | pIC50 [6]
CC(=O)N[C@H]1[C@@H](O[C@@H]2CC[C@@]3(C)C4=CC[C@](C)([C@@H](C)CC[C@H]5O[C@H](C(C)(C)O)CC[C@]5(C)O)[C@H]4CC[C@@H]3OC2(C)C)O[C@H](CO)[C@@H](O)[C@@H]1O | < 4.52 | < 4.52 | < 4.52 | < 4.52 | < 4.52 | –
COC[C@H]1O[C@H](O[C@@H]2CC[C@@]3(C)C4=C(CC[C@@H]3OC2(C)C)[C@@](C)([C@@H](C)CC[C@H]2O[C@H](C(C)(C)O)CC[C@]2(C)O[C@H]2O[C@H](COC)[C@@H](O)[C@H](O)[C@H]2NC(C)=O)CC4)[C@H](NC(C)=O)[C@@H](O)[C@@H]1O | < 4.52 | < 4.52 | < 4.52 | < 4.52 | < 4.52 | –
COC[C@H]1O[C@H](O[C@@]2(C)CC[C@@H](C(C)(C)O)O[C@@H]2CC[C@H](C)[C@@]2(C)CC=C3[C@@H]2CC[C@@H]2OC(C)(C)[C@H](O[C@H]4O[C@H](COC)[C@@H](O)[C@H](O)[C@H]4NC(C)=O)[C@@H](O)C[C@@]32C)[C@H](NC(C)=O)[C@@H](O)[C@@H]1O | < 4.52 | < 4.52 | < 4.52 | < 4.52 | < 4.52 | –
COC[C@H]1O[C@H](O[C@@H]2CC[C@@]3(C)C4=CC[C@](C)([C@@H](C)CC[C@H]5O[C@H](C(C)(C)O)CC[C@]5(C)O)[C@H]4CC[C@@H]3OC2(C)C)[C@H](NC(C)=O)[C@@H](O)[C@@H]1O | < 4.52 | < 4.52 | < 4.52 | < 4.52 | < 4.52 | –
COC[C@H]1O[C@H](O[C@@]2(C)CC[C@@H](C(C)(C)O)O[C@@H]2CC[C@H](C)[C@@]2(C)CCC3=C2CC[C@@H]2OC(C)(C)[C@H](O[C@H]4O[C@H](COC)[C@@H](O)[C@H](O)[C@H]4NC(C)=O)[C@@H](O)C[C@@]32C)[C@H](NC(C)=O)[C@@H](O)[C@@H]1O | < 4.52 | < 4.52 | < 4.52 | < 4.52 | < 4.52 | –
CC(C)[C@@]1(O)CC[C@@]2(C)C[C@](O)([C@@H]3CC[C@@H]4[C@]3(C)CC[C@H]3OC(C)(C)[C@H](O)C(=O)[C@@H](O)[C@]43C)CC[C@H]21 | – | – | – | – | – | 4.89
CC(C)[C@@]1(O)CC[C@@]2(C)C[C@](O)([C@@H]3CC[C@@H]4[C@]3(C)CC[C@H]3OC(C)(C)[C@H](O)C(=O)[C@H](O)[C@]43C)CC[C@H]21 | – | – | – | – | – | 4.48
COC[C@H]1O[C@H](O[C@@]2(C)CC[C@@H](C(C)(C)O)O[C@@H]2CC[C@H](C)[C@@]2(C)CC=C3[C@@H]2CC[C@@H]2OC(C)(C)[C@H](O[C@H]4O[C@H](CO)[C@@H](O)[C@H](O)[C@H]4NC(C)=O)CC[C@@]32C)[C@H](NC(C)=O)[C@@H](O)[C@@H]1O | < 4.52 | < 4.52 | < 4.52 | < 4.52 | < 4.52 | –
COC[C@H]1O[C@H](O[C@@H]2CC[C@@]3(C)C4=CC[C@](C)([C@@H](C)CC[C@H]5O[C@H](C(C)(C)O)CC[C@]5(C)O[C@H]5O[C@H](COC)[C@@H](O)[C@H](O)[C@H]5NC(C)=O)[C@H]4CC[C@@H]3OC2(C)C)[C@H](NC(C)=O)[C@@H](O)[C@@H]1O | < 4.52 | < 4.52 | < 4.52 | < 4.52 | < 4.52 | –
COC[C@H]1O[C@H](O[C@@H]2[C@@H](O)C[C@@]3(C)C4=CC[C@](C)([C@@H](C)CC[C@H]5O[C@H](C(C)(C)O)CC[C@]5(C)O)[C@H]4CC[C@@H]3OC2(C)C)[C@H](NC(C)=O)[C@@H](O)[C@@H]1O | < 4.52 | < 4.52 | < 4.52 | < 4.52 | < 4.52 | –

From ChEMBL document CHEMBL6127130, “Pullenvalenes E-H: Triterpenyl-Aminoglycosides from an Australian Soil-Derived Fungus, Clonostachys sp” (J Nat Prod, 2024)
